From ChEMBL document CHEMBL1944604, “Aminopurine based JNK inhibitors for the prevention of ischemia reperfusion injury” (Bioorg Med Chem Lett, 2012) come the findings set out here.

Broadly, the clearance is the volume of plasma or blood freed of the substance per unit of time. The IC50 is the concentration at which inhibition is half-maximal. The inhibition in vivo is the change of the read-out against control, counted positive when it falls. What is called AUC is the area under the concentration-time curve, a measure of exposure.

Molecules are shown by their SMILES.

Data set [1] can be described thus: Clearance in rat at 10 mg/kg, iv infusion. The format is ADME, organism-based. Details: dose 10 mg/kg, route intravenous; call rule not given here. The following applies: in vivo.
Data set [2] concerns the target T1, c-Jun N-terminal kinase, JNK (Homo sapiens, UniProt P45983+P53779+P45984). In words: Inhibition of JNK-mediated cJun phosphorylation in anisomysin-stimulated human Jurkat T cells pretreated for 30 mins before anisomysin stimulation measured after 10 mins by DELFIA assay. It is filed as cell-based.
The subject of data set [3] is Mus musculus. The data set can be described thus: Hepatoprotective activity in BALB/c mouse assessed as inhibition of concanavalin A-induced ALT elevation at 60 mg/kg, ip administered 1 hr prior Con A challenge. The following applies: route intraperitoneal. The format is functional.
Data set [4] is described as follows: Volume of distribution at steady state in rat at 10 mg/kg, iv infusion. As to conditions: in vivo, read-out: Vdss. It is filed as ADME, organism-based. More on the design: dose 10 mg/kg, route intravenous.
In another data set the target is Cytochrome P450 2C9 (Homo sapiens, UniProt P11712). In words: Inhibition of recombinant CYP2C9 up to 30 uM. The following applies: recombinant enzyme. It is filed as ADME.
Data set [5] can be described thus: AUC in rat at 2 to 10 mg/kg, iv bolus. It is filed as ADME, organism-based. More on the design: dose 2-10 mg/kg, route intravenous. The following applies: plasma.
Data set [6] has as its target T1, c-Jun N-terminal kinase, JNK. The data set can be described thus: Inhibition of JNK-mediated cJun phosphorylation in human Jurkat T cells by Western blotting. It is filed as cell-based.
Data set [7] has as its target Mitogen-activated protein kinase 14 (Homo sapiens, UniProt Q16539). The data set can be described thus: Inhibition of p38alpha using MBP and [gamma33P]ATP as substrate after 60 mins by scintillation counting.
A further data set deals with Rattus norvegicus. The data set can be described thus: Antiischemic activity in Lewis rat ischemia reperfusion model assessed as increase in survival rate at 10 mg/kg, iv bolus administered 15 mins before ischemia challenge relative to control. The format is functional.
Data set [8] can be described thus: Metabolic stability of the compound in human liver microsomes assessed as compound remaining at 3 uM after 30 mins. It is filed as ADME, Microsome. The following applies: read-out: Stability. In general terms: Microsomes from liver hold many membrane-bound enzymes, among them those of drug oxidation.
Data set [9] concerns the target Mitogen-activated protein kinase 9 (Homo sapiens, UniProt P45984). The data set can be described thus: Inhibition of full length Hexa-His-tagged JNK2 using GST-tagged cJun and [gamma33P]ATP as substrate after 60 mins by scintillation counting.
Data set [10] is described as follows: AUC in cynomolgus monkey at 1 mg/kg, iv bolus. The format is ADME, organism-based, Macaca fascicularis. More on the design: dose 1 mg/kg, route intravenous. As to conditions: plasma.
In data set [11] the test system is Mus musculus. The data set can be described thus: Hepatoprotective activity in BALB/c mouse assessed as inhibition of concanavalin A-induced ALT elevation at 30 mg/kg, ip administered 1 hr prior Con A challenge. The format is functional. The following applies: route intraperitoneal.

Cytochrome P450 2C9, sequence (P11712 whole entry): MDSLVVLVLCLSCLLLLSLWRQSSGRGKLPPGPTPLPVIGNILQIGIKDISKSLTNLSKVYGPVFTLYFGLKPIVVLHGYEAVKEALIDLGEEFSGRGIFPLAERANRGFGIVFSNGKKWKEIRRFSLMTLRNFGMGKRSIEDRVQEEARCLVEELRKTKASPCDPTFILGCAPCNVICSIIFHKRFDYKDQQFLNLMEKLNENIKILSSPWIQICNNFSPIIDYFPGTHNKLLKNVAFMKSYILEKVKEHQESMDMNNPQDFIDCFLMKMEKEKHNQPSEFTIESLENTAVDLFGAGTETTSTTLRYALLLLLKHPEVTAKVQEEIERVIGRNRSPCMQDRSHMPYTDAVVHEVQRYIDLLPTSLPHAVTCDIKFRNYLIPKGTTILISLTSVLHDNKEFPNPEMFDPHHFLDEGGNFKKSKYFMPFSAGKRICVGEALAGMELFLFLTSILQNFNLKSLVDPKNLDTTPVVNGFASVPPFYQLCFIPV
Mitogen-activated protein kinase 9, sequence (P45984 whole entry): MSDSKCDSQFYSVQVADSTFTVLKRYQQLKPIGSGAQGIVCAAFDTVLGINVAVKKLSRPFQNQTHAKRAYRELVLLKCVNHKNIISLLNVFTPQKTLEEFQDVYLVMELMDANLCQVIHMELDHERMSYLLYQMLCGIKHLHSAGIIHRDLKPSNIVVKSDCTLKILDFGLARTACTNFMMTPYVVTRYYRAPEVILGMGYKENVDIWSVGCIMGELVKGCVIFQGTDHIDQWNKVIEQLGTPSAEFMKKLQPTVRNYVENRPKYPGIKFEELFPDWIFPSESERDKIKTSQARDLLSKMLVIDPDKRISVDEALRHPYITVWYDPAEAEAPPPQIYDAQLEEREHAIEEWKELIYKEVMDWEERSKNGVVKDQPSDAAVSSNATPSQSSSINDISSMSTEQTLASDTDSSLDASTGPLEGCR
Mitogen-activated protein kinase 14, sequence (Q16539 whole entry, the tested form may be a part): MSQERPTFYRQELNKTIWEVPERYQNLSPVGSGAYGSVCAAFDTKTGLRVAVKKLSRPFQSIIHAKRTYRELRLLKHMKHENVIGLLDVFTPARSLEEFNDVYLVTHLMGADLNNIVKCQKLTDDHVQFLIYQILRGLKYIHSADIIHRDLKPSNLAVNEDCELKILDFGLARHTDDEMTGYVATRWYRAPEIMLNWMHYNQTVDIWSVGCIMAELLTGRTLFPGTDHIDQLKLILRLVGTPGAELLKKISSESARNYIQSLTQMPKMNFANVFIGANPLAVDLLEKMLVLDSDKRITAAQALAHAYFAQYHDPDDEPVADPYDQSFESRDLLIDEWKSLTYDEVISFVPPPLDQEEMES

Consider `N[C@H]1CC[C@H](Nc2ncc3nc(Nc4ccc(F)cc4F)n(C4CCCC4)c3n2)CC1`, for which the clearance in [1] was determined as 83 mL/min/kg. Also, the IC50 in [2] came out at 350 nM; in [6] it was 400 nM; in data set [7], 220 nM; in data set [9], 25 nM. For the same compound, in the data set with Mus musculus [3], the inhibition in vivo at 60 mg/kg stood at 98%. For the same compound, the Vd in data set [4] turned out to be 55 L/kg. The “inhibition (INH)” value at Cytochrome P450 2C9 is “Not Active”. Besides, the results for the AUC in [5] and in data set [10] were 4.7 µM·h and 7 µM·h, respectively. For the same compound, the survival at 10 mg/kg in the data set on Rattus norvegicus was found to be 80%. Moreover, the remaining at 0.5 h, 3 µM in [8] is 100%. Also, in the data set on Mus musculus [11], the inhibition in vivo at 30 mg/kg was determined as 41%.
